# Assay results taken from patent US10806121B2, “Animal litter containing a pheromone composition” (Sergeant's Pet Care Products, LLC, priority 2014, dated 2020).
# System: cats
# Experiment: Study 1: cat litter preference, pheromone-treated litter versus control litter
# Assay type: in vivo
# Experimental: In Study 1, four different treatments were tested: Androstenone (ANDRO); cat urinary pheromone, 3-mercapto-3-methyl-1-butanol (CAT); rabbit pheromone, 2-methylbut-2-enal (RP); and both the cat urinary pheromone and the rabbit pheromone (CAT+RP). 40 individual cats were used in this study to assess their preference to or aversion from a control litter versus a litter under one of the four treatments. Each treatment was tested with 10 cats. Litter was divided into 3 lb aliquots, and each aliquot was either used as a control or was mixed with a pheromone (or a pheromone combination) to be tested at a level of 10 μg/3-lb (or 7.3 μg/kg).
# On Day 0, each cat was placed into an assigned chamber randomly placed with two litter boxes, one control and one treated. Each of the two litter boxes was weighed and the weight was recorded. The camera in the chamber was properly aligned to give a full view of the chamber and started taping on Day 0. On Day 1, 24 hours after the start of taping on Day 0, each of the two litter boxes in the chamber was weighed and the weight was recorded. On Day 2, 48 hours after the start of taping on Day 0, each of the two litter boxes in the chamber was again weighed. Litter can be disposed of after weighing on Day 2, and the camera was then turned off. The weights of the litter boxes over the 48 hours were used to determine whether the litter was used or not, and at which preference level.
# The data were expressed as both a percentage preference (% of the cats using the treated litter in each treatment group) and by the weight of the litter (the litter gets heavier as it is soiled). It was expected that if the added pheromone had no effect on litter preference, 50% of the cats would use the treated litter and 50% would use the control litter. […] Further, the weight difference between a control litter or litter under treatment was used to show the relative strength of the effect of a particular treatment on cat's litter use behavior. During the study, some cats (N=3; 2 in CAT+RP and 1 in RP) spilled their litter and their data were unreliable and were not included.
# [1] = treated versus control litter weight after 2 days
smiles,measurement,setting,value
"C/C=C(\C)C=O [RP, 2-methylbut-2-enal]",increase of litter attraction,7 out of 9 cats chose treated litter,more than 3.5 times
same,percentage preference (% of the cats using the treated litter),"litter treated at 10 μg/3-lb (7.3 μg/kg), choice against control litter over 48 hours, 50% = no effect",78%
same,"Litter Type Use, g, TRT (weights of litter after 2 days)","treated litter box, 10 μg/3-lb, SE = 0.023",0.76 g
same,"Relative Difference, %",[1],138%
same,Significantly Different,[1],Yes
same,effect on cats' litter preference,"treated versus control litter, 48 hours",highly preferred over the control litter
